Measurements from PubChem BioAssay (NCI).
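GI50 = concentration required for 50% inhibition of growth. TGI: concentration producing complete growth inhibition.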

Tests used:
Assay in all cases: DTP human tumour cell line panel, 384-well format
[1] = test system: MALME-3M melanoma
[2] = test system: SN12C renal
[3] = test system: RXF 393 renal
[4] = test system: HL-60(TB) leukemia
[5] = test system: EKVX NSCLC
[6] = test system: NCI-H226 lung
[7] = test system: OVCAR-3 ovarian
[8] = test system: PC-3 prostate
[9] = test system: KM12 colon
[10] = test system: OVCAR-4 ovarian
[11] = test system: ACHN renal
[12] = test system: SNB-75 CNS
[13] = test system: MOLT-4 leukemia
[14] = test system: NCI-H23 lung
[15] = test system: SF-539 CNS
[16] = test system: NCI-H460 NSCLC
[17] = test system: MDA-MB-231 breast
[18] = test system: SK-OV-3 ovarian
[19] = test system: 786-0 renal
[20] = test system: A498 renal
[21] = test system: HOP-92 NSCLC
[22] = test system: UACC-257 melanoma
[23] = test system: HOP-62 NSCLC
[24] = test system: MDA-MB-435 melanoma
[25] = test system: SNB-19 CNS
[26] = test system: TK-10 renal
[27] = test system: SK-MEL-5 melanoma
[28] = test system: NCI-H322M lung
[29] = test system: COLO 205 colon
[30] = test system: CAKI-1 renal
[31] = test system: DU-145 prostate
[32] = test system: OVCAR-5 ovarian
[33] = test system: BT-549 breast
[34] = test system: LOX IMVI melanoma
[35] = test system: SF-295 CNS
[36] = test system: M14 melanoma
[37] = test system: HS 578T breast
[38] = test system: SK-MEL-28 melanoma
[39] = test system: IGROV1 ovarian
[40] = test system: UO-31 renal
[41] = test system: HT29 colon
[42] = test system: RPMI-8226 leukemia
[43] = test system: A549 NSCLC
[44] = test system: UACC-62 melanoma
[45] = test system: NCI/ADR-RES ovarian
[46] = test system: SR leukemia
[47] = test system: OVCAR-8 ovarian
[48] = test system: MCF7 breast
[49] = test system: MDA-MB-468 breast
[50] = test system: NCI-H522 lung
[51] = test system: CCRF-CEM leukemia
[52] = test system: T-47D breast
[53] = test system: SW-620 colon
[54] = test system: U251 glioblastoma
[55] = test system: SF-268 CNS
[56] = test system: HCC-2998 colon
[57] = test system: K-562 leukemia
[58] = test system: HCT-15 colon

CN(C[C@@H]1COCCO1)S(=O)(=O)Nc1ccc2ccc3ncc(-c4cnn(C)c4)cc3c(=O)c2c1
GI50 [1]: 3.48 µM | TGI [1]: 73.6 µM | GI50 [2]: 1.64 µM | TGI [2]: 8.8 µM | GI50 [3]: 5.6 µM | TGI [3]: > 100 µM | GI50 [4]: 3.32 µM | TGI [4]: 21 µM | GI50 [5]: 16.2 µM | TGI [5]: > 100 µM | GI50 [6]: 1.77 µM | TGI [6]: > 100 µM | GI50 [7]: 12.3 µM | TGI [7]: > 100 µM | GI50 [8]: 5.71 µM | TGI [8]: > 100 µM | GI50 [9]: 0.31 µM | TGI [9]: > 100 µM | GI50 [10]: 3.34 µM | TGI [10]: 61 µM | GI50 [11]: 2.56 µM | TGI [11]: > 100 µM | GI50 [12]: 2.18 µM | TGI [12]: 21.5 µM | GI50 [13]: 1.58 µM | TGI [13]: 3.03 µM | GI50 [14]: 0.588 µM | TGI [14]: 5.43 µM | GI50 [15]: 1.63 µM | TGI [15]: 15.2 µM | GI50 [16]: 3.45 µM | TGI [16]: 62.1 µM | GI50 [17]: 8.45 µM | TGI [17]: > 100 µM | GI50 [18]: 1.45 µM | TGI [18]: 14.5 µM | GI50 [19]: 5.58 µM | TGI [19]: > 100 µM | GI50 [20]: 0.808 µM | TGI [20]: 62.5 µM | GI50 [21]: 2.08 µM | TGI [21]: 10.8 µM | GI50 [22]: > 100 µM | TGI [22]: > 100 µM | GI50 [23]: 5.14 µM | TGI [23]: > 100 µM | GI50 [24]: 21.6 µM | TGI [24]: > 100 µM | GI50 [25]: 27.2 µM | TGI [25]: > 100 µM | GI50 [26]: 8.38 µM | TGI [26]: > 100 µM | GI50 [27]: 2.61 µM | TGI [27]: 19.2 µM | GI50 [28]: 4.99 µM | TGI [28]: > 100 µM | GI50 [29]: 24.4 µM | TGI [29]: > 100 µM | GI50 [30]: 1.89 µM | TGI [30]: > 100 µM | GI50 [31]: 5.46 µM | TGI [31]: > 100 µM | GI50 [32]: 24 µM | TGI [32]: > 100 µM | GI50 [33]: 2.1 µM | TGI [33]: 45.5 µM | GI50 [34]: 5.53 µM | TGI [34]: > 100 µM | GI50 [35]: 1.12 µM | TGI [35]: 10.9 µM | GI50 [36]: 3.67 µM | TGI [36]: > 100 µM | GI50 [37]: 1.99 µM | TGI [37]: 8.1 µM | GI50 [38]: > 100 µM | TGI [38]: > 100 µM | GI50 [39]: 2.13 µM | TGI [39]: 9 µM | GI50 [40]: 8.88 µM | TGI [40]: > 100 µM | GI50 [41]: 14.4 µM | TGI [41]: > 100 µM | GI50 [42]: 1.36 µM | TGI [42]: 5.21 µM | GI50 [43]: 8.08 µM | TGI [43]: > 100 µM | GI50 [44]: 3.36 µM | TGI [44]: > 100 µM | GI50 [45]: 3.56 µM | TGI [45]: 25.5 µM | GI50 [46]: 2.49 µM | TGI [46]: 7.48 µM | GI50 [47]: 6.02 µM | TGI [47]: > 100 µM | GI50 [48]: 5.9 µM | TGI [48]: > 100 µM | GI50 [49]: 1.63 µM | TGI [49]: 5.2 µM | GI50 [50]: 2.68 µM | TGI [50]: 9.07 µM | GI50 [51]: 3.12 µM | TGI [51]: 9.46 µM | GI50 [52]: 3.5 µM | TGI [52]: 59.5 µM | GI50 [53]: 7.12 µM | TGI [53]: > 100 µM | GI50 [54]: 6.34 µM | TGI [54]: > 100 µM | GI50 [55]: 5.68 µM | TGI [55]: > 100 µM | GI50 [56]: 39.6 µM | TGI [56]: > 100 µM | GI50 [57]: 6.92 µM | TGI [57]: > 100 µM | GI50 [58]: 3.09 µM | TGI [58]: > 100 µM
